Legend:
[1] = molecular target: Dual specificity mitogen-activated protein kinase kinase 1 (Homo sapiens) (UniProt Q02750); test: Inhibition of MEK1 (unknown origin) assessed as residual activity at 100 nM by KINOMEscan analysis relative to control
[2] = molecular target: Activin receptor type-2B (Homo sapiens) (UniProt Q13705); test: Inhibition of ACVR2B (unknown origin) assessed as residual activity at 100 nM by KINOMEscan analysis relative to control
[3] = molecular target: Casein kinase II subunit alpha (Homo sapiens) (UniProt P68400); test: Inhibition of CSNK2A1 (unknown origin) assessed as residual activity at 100 nM by KINOMEscan analysis relative to control
[4] = molecular target: Casein kinase I isoform gamma-2 (Homo sapiens) (UniProt P78368); test: Inhibition of CSNK1G2 (unknown origin) assessed as residual activity at 100 nM by KINOMEscan analysis relative to control
[5] = molecular target: Microtubule-associated serine/threonine-protein kinase 1 (Homo sapiens) (UniProt Q9Y2H9); test: Inhibition of MAST1 (unknown origin) assessed as residual activity at 100 nM by KINOMEscan analysis relative to control
[6] = molecular target: T1, Ephrin type-B receptor 6 (Homo sapiens) (UniProt O15197); test: Inhibition of EPHB6 (unknown origin) assessed as residual activity at 100 nM by KINOMEscan analysis relative to control
T1 sequence (whole entry): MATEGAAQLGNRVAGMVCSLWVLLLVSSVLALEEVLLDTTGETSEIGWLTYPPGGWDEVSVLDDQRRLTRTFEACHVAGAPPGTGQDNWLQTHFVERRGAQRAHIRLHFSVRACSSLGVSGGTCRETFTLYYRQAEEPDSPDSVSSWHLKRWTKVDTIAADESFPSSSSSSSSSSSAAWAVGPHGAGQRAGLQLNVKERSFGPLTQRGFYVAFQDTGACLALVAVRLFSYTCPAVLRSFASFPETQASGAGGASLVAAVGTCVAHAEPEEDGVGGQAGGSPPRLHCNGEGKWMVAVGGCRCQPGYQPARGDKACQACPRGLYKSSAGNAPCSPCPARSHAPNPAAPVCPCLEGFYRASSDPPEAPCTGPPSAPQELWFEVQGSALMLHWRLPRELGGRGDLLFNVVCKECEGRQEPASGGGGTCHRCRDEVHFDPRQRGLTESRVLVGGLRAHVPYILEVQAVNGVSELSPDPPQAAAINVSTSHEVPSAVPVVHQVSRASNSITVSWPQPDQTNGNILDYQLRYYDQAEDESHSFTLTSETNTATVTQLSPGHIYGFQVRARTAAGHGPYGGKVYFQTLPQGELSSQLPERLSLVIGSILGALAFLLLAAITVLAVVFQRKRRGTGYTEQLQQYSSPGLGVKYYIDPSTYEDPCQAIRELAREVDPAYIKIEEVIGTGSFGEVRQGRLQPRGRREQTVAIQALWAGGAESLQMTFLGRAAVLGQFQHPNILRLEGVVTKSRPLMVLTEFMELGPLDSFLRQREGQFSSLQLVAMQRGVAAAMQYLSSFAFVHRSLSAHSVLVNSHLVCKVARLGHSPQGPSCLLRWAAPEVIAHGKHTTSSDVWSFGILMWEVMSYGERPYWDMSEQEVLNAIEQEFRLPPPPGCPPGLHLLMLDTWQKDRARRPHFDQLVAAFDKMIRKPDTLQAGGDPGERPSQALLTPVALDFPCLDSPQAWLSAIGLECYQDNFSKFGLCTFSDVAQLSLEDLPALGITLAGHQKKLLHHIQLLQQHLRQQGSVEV

[7] = test system: Phosphatidylinositol 4,5-bisphosphate 3-kinase catalytic subunit alpha isoform (Homo sapiens), P42336 [I800L]; test: Inhibition of PIK3CA I800L mutant (unknown origin) assessed as residual activity at 100 nM by KINOMEscan analysis relative to control
[8] = molecular target: T2, Casein kinase I isoform alpha-like (Homo sapiens) (UniProt Q8N752); test: Inhibition of CSNK1A1L (unknown origin) assessed as residual activity at 100 nM by KINOMEscan analysis relative to control
T2 sequence (whole entry): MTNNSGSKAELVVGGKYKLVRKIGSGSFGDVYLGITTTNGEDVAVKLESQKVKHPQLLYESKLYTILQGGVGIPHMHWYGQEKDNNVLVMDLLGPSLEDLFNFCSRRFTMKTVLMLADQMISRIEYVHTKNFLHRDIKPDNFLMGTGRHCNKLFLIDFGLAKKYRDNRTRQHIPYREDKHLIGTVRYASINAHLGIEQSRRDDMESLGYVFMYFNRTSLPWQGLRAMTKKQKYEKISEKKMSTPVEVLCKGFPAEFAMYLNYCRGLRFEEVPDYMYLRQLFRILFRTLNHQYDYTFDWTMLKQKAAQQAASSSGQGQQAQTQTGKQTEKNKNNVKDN

[9] = molecular target: Mitogen-activated protein kinase 7 (Homo sapiens) (UniProt Q13164); test: Inhibition of ERK5 (unknown origin) assessed as residual activity at 100 nM by KINOMEscan analysis relative to control
[10] = molecular target: T3, Dual specificity protein kinase TTK (Homo sapiens) (UniProt P33981); test: Inhibition of TTK (unknown origin) assessed as residual activity at 100 nM by KINOMEscan analysis relative to control
T3 sequence (whole entry): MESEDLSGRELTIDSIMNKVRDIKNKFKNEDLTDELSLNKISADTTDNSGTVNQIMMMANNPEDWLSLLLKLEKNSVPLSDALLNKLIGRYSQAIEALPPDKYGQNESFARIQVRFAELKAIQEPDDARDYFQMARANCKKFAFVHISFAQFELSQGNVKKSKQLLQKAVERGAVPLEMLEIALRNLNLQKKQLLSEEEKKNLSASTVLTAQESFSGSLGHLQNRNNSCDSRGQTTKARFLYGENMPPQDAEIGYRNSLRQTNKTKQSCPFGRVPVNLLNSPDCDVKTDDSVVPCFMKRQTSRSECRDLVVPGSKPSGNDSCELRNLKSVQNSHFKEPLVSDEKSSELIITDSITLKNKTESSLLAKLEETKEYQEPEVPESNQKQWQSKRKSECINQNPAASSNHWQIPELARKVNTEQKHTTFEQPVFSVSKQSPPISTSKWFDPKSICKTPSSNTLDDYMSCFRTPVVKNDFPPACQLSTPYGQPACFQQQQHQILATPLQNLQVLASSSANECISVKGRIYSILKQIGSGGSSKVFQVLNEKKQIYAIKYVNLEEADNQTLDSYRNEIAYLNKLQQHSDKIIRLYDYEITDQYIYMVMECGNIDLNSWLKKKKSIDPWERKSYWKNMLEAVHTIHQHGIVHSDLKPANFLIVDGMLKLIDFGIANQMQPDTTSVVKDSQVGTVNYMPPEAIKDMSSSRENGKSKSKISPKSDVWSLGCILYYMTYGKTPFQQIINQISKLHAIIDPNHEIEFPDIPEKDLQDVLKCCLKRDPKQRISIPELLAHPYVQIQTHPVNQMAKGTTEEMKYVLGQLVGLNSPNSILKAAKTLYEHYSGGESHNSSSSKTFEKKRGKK

Sequence of Mitogen-activated protein kinase 7 (Homo sapiens) (Q13164 2-816 limits assumed): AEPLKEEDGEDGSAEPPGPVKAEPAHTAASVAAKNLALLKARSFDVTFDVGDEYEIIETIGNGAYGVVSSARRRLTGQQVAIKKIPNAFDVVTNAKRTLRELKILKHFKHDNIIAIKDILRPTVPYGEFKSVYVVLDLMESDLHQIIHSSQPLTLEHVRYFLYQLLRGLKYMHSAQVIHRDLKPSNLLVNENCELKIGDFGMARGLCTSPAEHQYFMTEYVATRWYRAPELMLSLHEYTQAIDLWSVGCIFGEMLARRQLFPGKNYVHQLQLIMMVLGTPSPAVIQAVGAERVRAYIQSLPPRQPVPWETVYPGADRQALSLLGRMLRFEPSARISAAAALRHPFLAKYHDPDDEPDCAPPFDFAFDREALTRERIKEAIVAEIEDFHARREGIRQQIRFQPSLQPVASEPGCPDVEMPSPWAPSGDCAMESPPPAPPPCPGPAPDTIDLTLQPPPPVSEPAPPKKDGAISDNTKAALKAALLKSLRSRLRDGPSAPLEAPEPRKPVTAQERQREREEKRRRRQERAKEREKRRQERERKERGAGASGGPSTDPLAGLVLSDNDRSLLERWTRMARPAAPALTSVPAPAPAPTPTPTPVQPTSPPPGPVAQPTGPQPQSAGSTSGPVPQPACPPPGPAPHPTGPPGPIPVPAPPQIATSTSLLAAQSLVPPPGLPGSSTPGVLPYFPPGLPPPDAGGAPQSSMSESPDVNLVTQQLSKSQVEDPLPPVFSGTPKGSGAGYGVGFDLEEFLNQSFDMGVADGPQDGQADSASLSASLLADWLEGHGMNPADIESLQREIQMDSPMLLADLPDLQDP
Sequence of Casein kinase I isoform gamma-2 (Homo sapiens) (P78368 whole entry, looked up, canonical isoform): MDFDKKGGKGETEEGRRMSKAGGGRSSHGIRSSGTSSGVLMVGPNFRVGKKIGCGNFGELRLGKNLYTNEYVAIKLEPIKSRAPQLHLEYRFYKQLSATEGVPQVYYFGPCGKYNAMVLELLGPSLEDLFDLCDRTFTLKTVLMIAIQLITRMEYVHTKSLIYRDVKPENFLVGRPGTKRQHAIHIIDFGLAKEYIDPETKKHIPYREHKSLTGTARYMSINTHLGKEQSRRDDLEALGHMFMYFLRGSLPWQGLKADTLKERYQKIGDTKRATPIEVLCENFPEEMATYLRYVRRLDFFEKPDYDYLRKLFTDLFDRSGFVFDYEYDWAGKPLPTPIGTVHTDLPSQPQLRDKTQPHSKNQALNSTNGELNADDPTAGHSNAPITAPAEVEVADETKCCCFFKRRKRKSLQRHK
Sequence of Phosphatidylinositol 4,5-bisphosphate 3-kinase catalytic subunit alpha isoform (Homo sapiens), P42336 [I800L] (P42336 whole entry I800L, canonical isoform): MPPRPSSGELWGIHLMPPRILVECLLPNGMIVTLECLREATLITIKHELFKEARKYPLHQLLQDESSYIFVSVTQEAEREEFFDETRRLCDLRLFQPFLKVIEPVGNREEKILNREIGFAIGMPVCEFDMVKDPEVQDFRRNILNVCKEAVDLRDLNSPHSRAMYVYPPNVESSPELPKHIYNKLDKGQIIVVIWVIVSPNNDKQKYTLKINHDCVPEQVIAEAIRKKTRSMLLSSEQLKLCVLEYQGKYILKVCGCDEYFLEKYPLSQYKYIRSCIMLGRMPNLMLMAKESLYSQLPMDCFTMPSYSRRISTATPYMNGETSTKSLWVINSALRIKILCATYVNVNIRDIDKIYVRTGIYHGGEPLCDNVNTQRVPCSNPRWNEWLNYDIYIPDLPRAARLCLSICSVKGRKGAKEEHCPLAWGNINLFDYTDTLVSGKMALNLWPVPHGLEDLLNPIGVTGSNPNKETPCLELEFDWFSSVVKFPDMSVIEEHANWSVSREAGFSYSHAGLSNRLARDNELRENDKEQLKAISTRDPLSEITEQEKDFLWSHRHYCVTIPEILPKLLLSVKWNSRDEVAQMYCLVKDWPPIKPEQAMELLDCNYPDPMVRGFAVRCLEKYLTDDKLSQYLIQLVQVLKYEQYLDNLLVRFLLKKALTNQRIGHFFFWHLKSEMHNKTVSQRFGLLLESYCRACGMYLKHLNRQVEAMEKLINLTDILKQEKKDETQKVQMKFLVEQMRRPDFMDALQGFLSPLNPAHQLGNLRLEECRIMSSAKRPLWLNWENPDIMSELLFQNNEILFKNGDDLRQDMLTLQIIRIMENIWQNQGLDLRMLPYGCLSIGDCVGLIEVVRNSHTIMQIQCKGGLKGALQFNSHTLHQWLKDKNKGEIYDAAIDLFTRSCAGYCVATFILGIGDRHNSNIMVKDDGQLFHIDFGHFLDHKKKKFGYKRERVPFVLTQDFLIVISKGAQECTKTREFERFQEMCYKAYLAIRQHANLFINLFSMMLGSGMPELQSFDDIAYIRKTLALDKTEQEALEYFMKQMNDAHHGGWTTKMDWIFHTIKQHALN
Sequence of Microtubule-associated serine/threonine-protein kinase 1 (Homo sapiens) (Q9Y2H9 whole entry, looked up): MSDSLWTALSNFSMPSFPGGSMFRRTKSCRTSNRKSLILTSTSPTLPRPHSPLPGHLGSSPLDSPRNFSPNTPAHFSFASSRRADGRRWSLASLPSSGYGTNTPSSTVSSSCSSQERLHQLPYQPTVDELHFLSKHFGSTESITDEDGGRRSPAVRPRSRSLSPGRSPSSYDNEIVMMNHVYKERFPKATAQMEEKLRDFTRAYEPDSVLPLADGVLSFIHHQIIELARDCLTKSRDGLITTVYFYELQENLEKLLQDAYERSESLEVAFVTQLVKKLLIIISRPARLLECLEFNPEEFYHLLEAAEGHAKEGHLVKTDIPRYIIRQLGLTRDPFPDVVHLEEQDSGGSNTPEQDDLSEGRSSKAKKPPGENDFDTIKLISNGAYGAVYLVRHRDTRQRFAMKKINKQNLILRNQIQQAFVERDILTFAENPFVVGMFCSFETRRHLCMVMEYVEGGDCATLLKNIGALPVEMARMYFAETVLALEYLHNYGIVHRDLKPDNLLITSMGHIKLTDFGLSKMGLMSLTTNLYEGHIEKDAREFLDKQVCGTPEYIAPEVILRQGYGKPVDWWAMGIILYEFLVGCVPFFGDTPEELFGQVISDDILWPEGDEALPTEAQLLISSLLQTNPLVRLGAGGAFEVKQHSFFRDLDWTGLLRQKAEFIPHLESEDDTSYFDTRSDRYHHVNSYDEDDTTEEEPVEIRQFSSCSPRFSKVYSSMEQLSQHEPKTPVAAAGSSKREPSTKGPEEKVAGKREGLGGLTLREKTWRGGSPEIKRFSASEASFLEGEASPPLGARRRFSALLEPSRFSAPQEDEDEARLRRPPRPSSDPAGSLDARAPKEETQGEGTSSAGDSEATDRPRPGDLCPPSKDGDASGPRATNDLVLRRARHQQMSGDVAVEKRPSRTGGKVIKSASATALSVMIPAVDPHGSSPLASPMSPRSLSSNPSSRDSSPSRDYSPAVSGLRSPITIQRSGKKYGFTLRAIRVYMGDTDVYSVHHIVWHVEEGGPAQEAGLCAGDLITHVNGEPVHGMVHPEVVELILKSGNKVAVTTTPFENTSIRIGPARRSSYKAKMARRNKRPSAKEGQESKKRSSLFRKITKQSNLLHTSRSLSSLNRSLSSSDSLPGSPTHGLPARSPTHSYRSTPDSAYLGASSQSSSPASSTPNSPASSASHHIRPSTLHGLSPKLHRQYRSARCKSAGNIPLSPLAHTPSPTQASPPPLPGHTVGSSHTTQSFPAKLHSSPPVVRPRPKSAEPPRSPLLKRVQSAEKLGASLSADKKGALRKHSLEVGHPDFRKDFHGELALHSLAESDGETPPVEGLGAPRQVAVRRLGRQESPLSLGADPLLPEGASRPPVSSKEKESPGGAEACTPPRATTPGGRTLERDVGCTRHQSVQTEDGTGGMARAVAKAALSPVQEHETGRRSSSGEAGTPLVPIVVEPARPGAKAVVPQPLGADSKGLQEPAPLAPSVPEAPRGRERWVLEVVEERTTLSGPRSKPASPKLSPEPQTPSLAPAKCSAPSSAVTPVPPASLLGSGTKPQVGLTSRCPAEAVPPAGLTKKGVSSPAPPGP
Sequence of Dual specificity mitogen-activated protein kinase kinase 1 (Homo sapiens) (Q02750 whole entry): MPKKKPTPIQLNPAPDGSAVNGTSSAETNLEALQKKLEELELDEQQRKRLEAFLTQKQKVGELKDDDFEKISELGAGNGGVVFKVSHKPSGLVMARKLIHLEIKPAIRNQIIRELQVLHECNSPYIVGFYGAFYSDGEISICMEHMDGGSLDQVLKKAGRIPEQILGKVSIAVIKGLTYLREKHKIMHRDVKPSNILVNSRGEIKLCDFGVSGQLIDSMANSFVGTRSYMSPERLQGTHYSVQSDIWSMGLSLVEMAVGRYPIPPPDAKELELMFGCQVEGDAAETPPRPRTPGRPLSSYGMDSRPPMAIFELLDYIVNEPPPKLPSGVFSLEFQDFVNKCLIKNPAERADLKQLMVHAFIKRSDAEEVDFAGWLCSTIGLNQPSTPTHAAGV
Sequence of Casein kinase II subunit alpha (Homo sapiens) (P68400 whole entry, looked up, canonical isoform): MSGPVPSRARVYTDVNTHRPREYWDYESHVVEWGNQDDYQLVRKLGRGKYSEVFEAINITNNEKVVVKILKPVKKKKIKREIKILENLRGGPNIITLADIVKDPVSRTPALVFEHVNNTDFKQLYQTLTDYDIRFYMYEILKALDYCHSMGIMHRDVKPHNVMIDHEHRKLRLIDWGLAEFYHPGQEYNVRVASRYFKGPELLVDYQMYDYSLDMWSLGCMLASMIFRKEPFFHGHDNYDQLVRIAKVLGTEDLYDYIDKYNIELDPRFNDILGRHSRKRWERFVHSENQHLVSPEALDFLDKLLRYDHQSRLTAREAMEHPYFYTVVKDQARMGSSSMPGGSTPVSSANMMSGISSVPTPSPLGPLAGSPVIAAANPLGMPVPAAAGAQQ

COc1cc2ncnc(N[C@H](C)c3cccc4ccccc34)c2cc1OC
Activity [1]: 98%
Activity [2]: 91%
Activity [3]: 96%
Activity [4]: 91%
Activity [5]: 71%
Activity [6]: 77%
Activity [7]: 98%
Activity [8]: 100%
Activity [9]: 84%
Activity [10]: 95%

— ChEMBL document CHEMBL5678818, “Discovery of potent SOS1 inhibitors that block RAS activation via disruption of the RAS-SOS1 interaction” (Proc Natl Acad Sci U S A, 2019)
